The nature of assay [1]: cytotoxicity in HPDE-C7 cells, cell-based, fluorescence, HTS (AID 430). The following applies: Homo sapiens. It counts as functional.
Assay [2] can be described thus: cells. It counts as functional, cell-based.
A short description of assay [3]: cytotoxicity toward NIH3T3 fibroblasts, dose response, counter-screen, cell-based, ATP luminescence, mouse fibroblasts (AID 2010).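 Note: cells exposed to compound for about 90 hours before reading.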 Type of assay: functional. A general note: The purpose of a counterscreen is to sort out artefacts and off-target activity.
The next assay has as its target T1, Streptokinase A (Streptococcus pyogenes serotype M1, UniProt P10520).
T1 sequence (P10520 whole entry): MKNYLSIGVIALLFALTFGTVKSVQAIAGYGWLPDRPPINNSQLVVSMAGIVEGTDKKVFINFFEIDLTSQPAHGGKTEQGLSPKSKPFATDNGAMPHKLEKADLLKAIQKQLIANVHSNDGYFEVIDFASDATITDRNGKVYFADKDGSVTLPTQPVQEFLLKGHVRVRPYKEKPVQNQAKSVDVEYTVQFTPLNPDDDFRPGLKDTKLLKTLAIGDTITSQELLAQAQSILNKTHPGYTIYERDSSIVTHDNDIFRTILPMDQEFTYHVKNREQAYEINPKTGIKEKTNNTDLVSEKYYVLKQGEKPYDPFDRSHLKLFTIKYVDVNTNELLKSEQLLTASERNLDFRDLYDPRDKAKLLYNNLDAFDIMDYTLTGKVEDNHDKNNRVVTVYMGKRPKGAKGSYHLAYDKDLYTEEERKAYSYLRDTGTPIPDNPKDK
Nature of the assay: S. pyogenes streptokinase expression inhibitors, potency, dose response, plasminogen activation absorbance, OD405 (AID 1914).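 Note: secreted streptokinase activity via plasminogen activation per viability signal from cell pellet.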 Type of assay: functional, Streptococcus pyogenes M1 GAS.

In assay [4] the test system is Streptococcus sp. 'group A'. Nature of the assay: growth inhibition of control SK(-) GAS strain, dose response, counter-screen for streptokinase expression inhibitor project, luminescence, kanamycin, BacTiterGlo, confirmation (AID 1900). Type of assay: functional, organism-based.
Assay [5] is described as follows: Shn3 3'UTR reporter inhibitors, dose response, cell-based, Clone20 osteoblasts, firefly luciferase, cherry-picked (AID 624132).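 Note: firefly luciferase luminescence from reporter carrying the Shn3 3'UTR in osteoblasts.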 It counts as functional.
Assay [6] deals with T2, Serine/threonine-protein phosphatase (Homo sapiens, UniProt Q9BPW0).
T2 sequence (Q9BPW0 whole entry): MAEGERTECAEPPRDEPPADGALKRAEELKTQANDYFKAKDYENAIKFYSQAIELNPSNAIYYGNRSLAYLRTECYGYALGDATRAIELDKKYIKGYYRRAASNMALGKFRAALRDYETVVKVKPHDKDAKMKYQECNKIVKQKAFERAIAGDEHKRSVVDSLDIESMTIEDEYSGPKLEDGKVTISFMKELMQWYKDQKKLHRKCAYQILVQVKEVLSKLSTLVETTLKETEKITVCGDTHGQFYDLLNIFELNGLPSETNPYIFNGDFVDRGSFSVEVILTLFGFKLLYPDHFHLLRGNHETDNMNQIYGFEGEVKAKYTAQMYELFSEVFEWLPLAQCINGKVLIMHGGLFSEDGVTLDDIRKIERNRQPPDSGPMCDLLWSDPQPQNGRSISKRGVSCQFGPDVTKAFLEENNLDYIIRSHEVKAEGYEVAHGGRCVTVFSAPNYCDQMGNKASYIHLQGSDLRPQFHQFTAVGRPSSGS
Nature of the assay: Counterscreen for inhibitors of PP1: fluorescence-based biochemical high throughput dose response assay to identify inhibitors of Protein Phosphatase 5 (PP5). [Related pubchem assays: 2034 (Summary (PP5 inhibitors)), 1987 (PP5 inhibitors in singlate), 2235 (PP1 inhibitors in singlate)].

The nature of assay [7]: cytotoxicity in KRAS-transformed pancreatic duct cells, primary screen, cell-based, fluorescence, HTS (AID 431).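 Note: cell line used: HPDE-C7K.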 It counts as functional. The note with it: Homo sapiens.
In assay [8] the target is Serine/threonine-protein phosphatase PP1-alpha catalytic subunit (Homo sapiens, UniProt P62136). The assay can be described thus: PP1 phosphatase inhibitors, dose response, biochemical, fluorescence (AID 2403).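 Note: phosphatase turnover of OMFP into fluorescent 3-O-methylfluorescein.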
Assay [9] in a line: HepG2 cell cytotoxicity, dose response, cytotoxicity control for Shn3 inhibitor project, CellTiter-Glo, cherry-picked (AID 624134). Type of assay: functional, cell-based. (In general: Cellular ATP, detected with luciferase, serves as a proxy for viable cell number.)
The next assay has as its system INS1. Nature of the assay: beta cell apoptosis inhibitors, cytokine rescue, dose response, luminescence, retest (AID 449756).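 Note: cell death triggered by IL-1 beta plus TNF-alpha plus IFN-gamma mixture; protective hits raise ATP signal compared with cytokine alone wells.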 It counts as functional, cell-based. The following applies: Rattus norvegicus.
A short description of assay [10]: HepG2 cell cytotoxicity, dose response, cytotoxicity control, ATP luminescence, cherry-pick, activator set 2 (AID 1053143). It counts as functional, cell-based.
The subject of a further assay is Streptococcus. The assay can be described thus: Group A Streptococcus viability loss, dose response, counter-screen for streptokinase expression inhibitor project, luminescence, BacTiterGlo (AID 1915).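 Note: potency for reduction of bacterial viability or growth.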 It counts as functional, organism-based.
A short description of assay [11]: Artemis endonuclease inhibitor potency, dose response, biochemical, fluorescence intensity (AID 720701).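 Note: Artemis endonuclease enzyme.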 It counts as functional.
For a further assay, the target named is Nonstructural protein 1 (Influenza A virus, UniProt Q194T2). Type of assay: functional, Influenza A virus (A/California/07/2009(H1N1)).
Assay [12] can be described thus: inhibitors of intracellular T. cruzi replication, confirmation, NIH3T3 host cells, beta-gal luminescence (AID 2044).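 Note: intracellular parasites grown in NIH/3T3 mouse fibroblasts as host cells; luminescent beta-galactosidase reporter signal from transgenic T. cruzi replicating inside host cells; inhibitors lower the luminescence signal.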 Type of assay: functional, cell-based.
The nature of assay [13]: cells. Type of assay: functional, cell-based. This is another data set of the same source.
Assay [14] can be described thus: control 3'UTR Renilla luciferase suppression, dose response, counter-screen for Shn3 inhibitor project, cell-based, Clone20-Shn3RL, cherry-picked (AID 624133). It counts as functional.
For the next assay, the system named is HeLa. The assay can be described thus: Cytotoxicity counterscreen assay for transcriptional activators of heat shock protein 70 (Hsp70). [Related pubchem assays: 1203, 1252 ]. Type of assay: functional. The note with it: Homo sapiens.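 Note: cells exposed to compound for 16 hours before readout.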
The nature of assay [15]: cytotoxicity in HEK-293T cells, dose response, cytotoxicity control for TCR NF-kB inhibitor project, luminescence, T-cell screen hits (AID 489026).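 Note: cells exposed to compound about 14 hours before the viability readout.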 Type of assay: functional, cell-based.
The target in assay [16] is G-protein coupled receptor 55 (Homo sapiens, UniProt Q9Y2T6). Nature of the assay: GPR55 antagonists blocking LPI-driven arrestin recruitment, primary screen, imaging, U2OS, beta-arrestin-GFP, LPI agonist (AID 2013).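 Note: antagonist potency measured as reduced agonist-driven arrestin aggregation.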 Type of assay: functional.
For assay [17], the target named is T3, Type-1 angiotensin II receptor (Homo sapiens, UniProt P30556).
T3 sequence (P30556 whole entry): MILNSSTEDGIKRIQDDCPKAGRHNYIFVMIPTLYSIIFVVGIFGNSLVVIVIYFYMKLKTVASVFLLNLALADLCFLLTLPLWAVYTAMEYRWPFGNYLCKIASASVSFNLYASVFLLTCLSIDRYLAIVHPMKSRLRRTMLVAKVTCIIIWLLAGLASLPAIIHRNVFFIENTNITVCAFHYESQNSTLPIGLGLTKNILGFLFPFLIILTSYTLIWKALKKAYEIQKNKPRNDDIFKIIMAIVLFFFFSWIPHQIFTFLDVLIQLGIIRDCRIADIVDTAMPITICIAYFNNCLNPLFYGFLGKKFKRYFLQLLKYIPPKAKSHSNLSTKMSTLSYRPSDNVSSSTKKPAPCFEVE
Nature of the assay: AT1 receptor antagonists, dose response, selectivity assay for APJ receptor antagonist project, cell-based, uHTS hits (AID 463214).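 Note: antagonist potency against angiotensin II stimulated AT1 response.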 It counts as functional.

Assay [18] is described as follows: Luminescence-based dose response cell-based high throughput screening assay for cytotoxic compounds using the IEC-6 intestinal epithelial cell line. [Related pubchem assays: 1858 (Summary AID.), 1825 (Counterscreen.), 1907 (Confirmation screen.)]. It counts as functional.
Another assay deals with Beta-galactosidase (Escherichia coli, UniProt Q8VNN2). Nature of the assay: PubChem AID 485352. It counts as functional.
A further assay addresses Ephrin type-A receptor 4 (Mus musculus, UniProt Q03137). Nature of the assay: inhibitors of EphA4 binding to KYL peptide, primary screen, biochemical, colorimetric, mouse EphA4 (AID 689). Type of assay: functional.
Assay [19] is described as follows: growth suppression of PTEN-null colon cells, dose response, cell-based, HCT116 PTEN knockout (AID 1047).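 Note: HCT116 colon tumor cells with PTEN knocked out; cells exposed to compound for 60 hours before readout; potency for loss of cell viability measured by luminescence.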 Type of assay: functional.
In assay [20] the target is Protein-tyrosine kinase 2-beta (Homo sapiens, UniProt Q14289).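 Note: potency of inhibitors of PYK2 kinase phosphorylation of poly-GT substrate.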
The target of assay [21] is Arf-GAP with SH3 domain, ANK repeat and PH domain-containing protein 1 (Homo sapiens, UniProt Q9ULH1). Type of assay: functional.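 Note: biochemical fluorescence polarization dose–response screen measuring inhibition of ASAP1; ASAP1 GAP domain stimulating GTP hydrolysis by truncated human ARF1.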
The target in assay [22] is ADP-ribosylation factor GTPase-activating protein 1 (Rattus norvegicus, UniProt Q62848). The assay can be described thus: Fluorescence polarization-based biochemical high throughput dose response screening assay to identify inhibitors of ADP-ribosylation factor GTPase activating protein 1 (ARFGAP1). It counts as functional.

Calls of active or inactive are those of the source.

Broadly, the EC50 is the concentration needed to bring the measured effect to its halfway point. Broadly, the AC50 is the concentration at which the activity in the assay is half-maximal. Broadly, the IC50 is the concentration that inhibits the measured activity by half. Broadly, the CC50 is the concentration that lowers cell viability or growth by half.

Sequence of Beta-galactosidase (Q8VNN2 whole entry): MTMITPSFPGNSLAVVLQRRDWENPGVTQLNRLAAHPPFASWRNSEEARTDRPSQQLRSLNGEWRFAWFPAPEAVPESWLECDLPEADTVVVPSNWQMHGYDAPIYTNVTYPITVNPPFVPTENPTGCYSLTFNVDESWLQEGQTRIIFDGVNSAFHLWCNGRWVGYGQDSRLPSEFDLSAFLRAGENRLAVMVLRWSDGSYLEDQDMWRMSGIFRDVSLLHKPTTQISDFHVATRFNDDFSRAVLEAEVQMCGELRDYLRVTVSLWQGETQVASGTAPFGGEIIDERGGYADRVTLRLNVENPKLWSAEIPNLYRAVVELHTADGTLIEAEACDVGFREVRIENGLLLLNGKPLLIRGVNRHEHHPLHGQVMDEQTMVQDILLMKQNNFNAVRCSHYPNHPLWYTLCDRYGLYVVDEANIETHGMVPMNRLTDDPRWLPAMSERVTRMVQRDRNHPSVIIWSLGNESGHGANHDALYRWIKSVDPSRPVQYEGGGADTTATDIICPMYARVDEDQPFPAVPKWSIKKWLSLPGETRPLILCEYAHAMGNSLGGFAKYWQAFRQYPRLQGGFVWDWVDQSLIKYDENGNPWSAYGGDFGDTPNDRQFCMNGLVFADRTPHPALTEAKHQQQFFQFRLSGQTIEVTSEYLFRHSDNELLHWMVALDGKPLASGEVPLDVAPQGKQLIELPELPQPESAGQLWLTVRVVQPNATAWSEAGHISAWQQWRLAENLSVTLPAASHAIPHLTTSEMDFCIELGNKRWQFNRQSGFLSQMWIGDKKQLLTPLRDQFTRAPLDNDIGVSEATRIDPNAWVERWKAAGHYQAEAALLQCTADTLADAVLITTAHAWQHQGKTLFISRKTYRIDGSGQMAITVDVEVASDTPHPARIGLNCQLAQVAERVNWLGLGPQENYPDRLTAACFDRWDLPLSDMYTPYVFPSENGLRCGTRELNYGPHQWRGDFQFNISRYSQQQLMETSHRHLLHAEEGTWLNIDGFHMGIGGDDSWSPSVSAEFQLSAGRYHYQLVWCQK
Sequence of G-protein coupled receptor 55 (Q9Y2T6 whole entry): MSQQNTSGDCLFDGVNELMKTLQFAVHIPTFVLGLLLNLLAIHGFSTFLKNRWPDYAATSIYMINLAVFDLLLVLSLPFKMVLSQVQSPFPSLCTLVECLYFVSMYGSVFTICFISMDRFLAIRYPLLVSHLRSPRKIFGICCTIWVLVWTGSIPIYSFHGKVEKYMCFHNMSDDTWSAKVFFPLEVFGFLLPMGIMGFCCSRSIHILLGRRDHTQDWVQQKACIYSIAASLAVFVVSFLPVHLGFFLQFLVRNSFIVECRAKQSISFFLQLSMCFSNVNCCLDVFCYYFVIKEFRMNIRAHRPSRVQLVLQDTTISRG
Sequence of ADP-ribosylation factor GTPase-activating protein 1 (Q62848 whole entry): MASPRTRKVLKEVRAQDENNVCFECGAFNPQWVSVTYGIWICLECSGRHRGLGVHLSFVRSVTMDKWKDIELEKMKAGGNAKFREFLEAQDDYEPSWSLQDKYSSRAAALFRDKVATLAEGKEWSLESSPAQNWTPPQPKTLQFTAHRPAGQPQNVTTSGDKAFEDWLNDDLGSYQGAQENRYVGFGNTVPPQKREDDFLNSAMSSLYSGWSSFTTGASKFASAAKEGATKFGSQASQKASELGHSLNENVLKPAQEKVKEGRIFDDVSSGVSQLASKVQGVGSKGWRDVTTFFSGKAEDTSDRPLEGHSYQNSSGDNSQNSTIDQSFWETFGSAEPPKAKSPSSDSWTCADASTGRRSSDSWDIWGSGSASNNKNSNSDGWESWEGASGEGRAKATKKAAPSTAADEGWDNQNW
Sequence of Arf-GAP with SH3 domain, ANK repeat and PH domain-containing protein 1 (Q9ULH1 whole entry, the tested form may be a part): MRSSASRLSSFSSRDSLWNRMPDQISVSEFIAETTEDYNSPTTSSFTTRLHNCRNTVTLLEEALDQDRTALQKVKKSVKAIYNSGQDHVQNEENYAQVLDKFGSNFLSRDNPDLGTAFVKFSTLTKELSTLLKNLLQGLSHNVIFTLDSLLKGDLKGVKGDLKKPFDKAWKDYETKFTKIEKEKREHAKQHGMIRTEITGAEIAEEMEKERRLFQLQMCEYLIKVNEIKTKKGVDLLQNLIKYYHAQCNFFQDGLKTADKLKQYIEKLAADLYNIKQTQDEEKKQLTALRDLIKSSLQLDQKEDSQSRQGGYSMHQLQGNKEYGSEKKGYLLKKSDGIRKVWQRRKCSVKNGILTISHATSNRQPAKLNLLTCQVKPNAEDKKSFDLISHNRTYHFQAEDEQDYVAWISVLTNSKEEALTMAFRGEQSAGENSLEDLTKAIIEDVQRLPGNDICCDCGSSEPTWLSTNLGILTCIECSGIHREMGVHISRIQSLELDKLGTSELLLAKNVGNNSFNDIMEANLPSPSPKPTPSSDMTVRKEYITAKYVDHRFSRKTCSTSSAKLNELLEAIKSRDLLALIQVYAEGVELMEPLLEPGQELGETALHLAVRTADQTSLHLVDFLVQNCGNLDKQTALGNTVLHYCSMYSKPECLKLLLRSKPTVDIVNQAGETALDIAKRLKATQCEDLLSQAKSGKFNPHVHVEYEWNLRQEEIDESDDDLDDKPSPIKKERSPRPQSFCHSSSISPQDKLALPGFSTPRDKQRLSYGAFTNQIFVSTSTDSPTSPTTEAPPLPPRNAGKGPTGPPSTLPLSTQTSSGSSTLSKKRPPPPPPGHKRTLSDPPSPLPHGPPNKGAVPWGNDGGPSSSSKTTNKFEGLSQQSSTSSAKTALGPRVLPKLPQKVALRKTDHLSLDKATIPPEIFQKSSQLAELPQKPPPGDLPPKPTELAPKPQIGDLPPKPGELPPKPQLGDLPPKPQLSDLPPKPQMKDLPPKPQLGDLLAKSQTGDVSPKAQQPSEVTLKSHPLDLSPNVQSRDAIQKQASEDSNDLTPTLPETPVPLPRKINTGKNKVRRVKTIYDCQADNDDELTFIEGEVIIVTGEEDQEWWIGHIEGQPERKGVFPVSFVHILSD
Sequence of Nonstructural protein 1 (Q194T2 whole entry): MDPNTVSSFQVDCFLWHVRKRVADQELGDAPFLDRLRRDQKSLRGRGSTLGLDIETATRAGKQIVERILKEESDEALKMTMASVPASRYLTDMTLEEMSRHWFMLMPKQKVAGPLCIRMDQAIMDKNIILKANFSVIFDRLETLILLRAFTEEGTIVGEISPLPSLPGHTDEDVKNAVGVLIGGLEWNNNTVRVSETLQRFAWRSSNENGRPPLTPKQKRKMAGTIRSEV
Sequence of Protein-tyrosine kinase 2-beta (Q14289 whole entry, the tested form may be a part): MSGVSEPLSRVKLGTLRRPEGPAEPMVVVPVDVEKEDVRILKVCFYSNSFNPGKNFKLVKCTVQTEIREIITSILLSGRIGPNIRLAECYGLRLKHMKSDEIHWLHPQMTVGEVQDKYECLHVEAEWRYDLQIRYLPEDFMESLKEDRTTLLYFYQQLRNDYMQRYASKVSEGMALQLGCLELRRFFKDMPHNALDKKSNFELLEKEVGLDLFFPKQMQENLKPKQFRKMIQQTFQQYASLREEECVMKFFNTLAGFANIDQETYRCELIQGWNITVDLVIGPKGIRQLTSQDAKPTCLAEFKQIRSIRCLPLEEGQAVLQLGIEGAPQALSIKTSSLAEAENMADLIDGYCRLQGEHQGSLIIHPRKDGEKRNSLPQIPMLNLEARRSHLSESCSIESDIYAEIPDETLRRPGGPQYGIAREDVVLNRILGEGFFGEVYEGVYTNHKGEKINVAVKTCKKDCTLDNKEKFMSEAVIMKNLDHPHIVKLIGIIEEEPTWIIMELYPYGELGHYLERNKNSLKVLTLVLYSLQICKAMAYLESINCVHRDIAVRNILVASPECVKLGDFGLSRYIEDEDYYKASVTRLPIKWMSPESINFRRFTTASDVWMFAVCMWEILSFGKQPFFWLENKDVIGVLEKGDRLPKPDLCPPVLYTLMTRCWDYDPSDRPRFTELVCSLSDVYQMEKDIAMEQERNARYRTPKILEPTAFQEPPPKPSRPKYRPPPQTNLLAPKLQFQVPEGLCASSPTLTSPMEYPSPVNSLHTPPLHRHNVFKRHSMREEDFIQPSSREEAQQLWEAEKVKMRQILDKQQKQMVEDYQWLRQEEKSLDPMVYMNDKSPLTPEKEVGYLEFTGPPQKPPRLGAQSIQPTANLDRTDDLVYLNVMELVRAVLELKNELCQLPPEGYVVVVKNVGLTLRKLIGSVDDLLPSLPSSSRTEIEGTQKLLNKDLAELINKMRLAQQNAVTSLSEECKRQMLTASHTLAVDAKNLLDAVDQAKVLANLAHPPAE
Sequence of Serine/threonine-protein phosphatase PP1-alpha catalytic subunit (P62136 whole entry): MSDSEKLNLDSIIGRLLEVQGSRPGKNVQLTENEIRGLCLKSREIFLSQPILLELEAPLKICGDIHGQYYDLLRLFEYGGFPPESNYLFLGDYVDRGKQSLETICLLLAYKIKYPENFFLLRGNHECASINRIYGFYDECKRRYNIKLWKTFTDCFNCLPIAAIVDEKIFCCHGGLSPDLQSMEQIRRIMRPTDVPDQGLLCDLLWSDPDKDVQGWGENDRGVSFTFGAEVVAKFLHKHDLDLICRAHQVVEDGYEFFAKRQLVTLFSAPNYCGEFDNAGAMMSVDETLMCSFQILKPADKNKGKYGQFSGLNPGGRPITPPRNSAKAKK

`Oc1c(C(Nc2ccccn2)c2ccccn2)ccc2cccnc12` (centres undefined): the EC50 in [1] is 17.6 µM (active); in the assay “cells [2]”, 9.9 µM (active); in assay [3] it was 5.87 µM (active); on Streptokinase A, > 150 µM (not active); in [4], 7.44 µM (active); in assay [7], > 20 µM (not active). Also, the EC50 in the assay on Streptococcus is 14.8 µM (active); in [12], 1.22 µM (active); in the assay “cells [13]”, > 350 µM (not active). Further, the AC50 is 4.36 µM (active) in assay [5]; 6 µM (active) in assay [9]; 2.79 µM (active) in the assay on INS1; 21.9 µM (active) in [10]; 2.88 µM (active) in assay [14]. Besides, the IC50 in assay [6] is > 67 µM (not active); in [8], 3.82 µM (active); in assay [11], 11.4 µM (active); at Nonstructural protein 1, 8.2 µM (active).

Regarding `COc1ccc(NC(=O)/C(Cl)=C(/Cl)[S+]([O-])Cc2ccccc2Cl)cn1` (centres undefined), the CC50 in the assay on HeLa was 1.43 µM (active). Besides, the IC50 in assay [15] is 25.3 µM (inactive); in [16] it was 3.25 µM (active); in assay [17], 4.54 µM (active); in assay [18], 1.36 µM (active). Further, the EC50 at Beta-galactosidase was > 40 µM (inactive).

Consider `Cc1ccccc1C(=O)c1cccn1CC(=O)NCC1CCCO1` (centres undefined), for which the IC50 at Ephrin type-A receptor 4 is given as > 100 µM (not active).

With `Cc1ccc2cc3cc(C(=O)NCc4ccc5c(c4)OCO5)oc3nc2c1`, the EC50 in assay [19] is 20.9 µM (active). In addition, the figures for the IC50 in [20], in [21] and in assay [22] were 46.5 µM (not active), 12.5 µM (inactive) and 16.7 µM (inactive), respectively.

The record behind these values is ChEMBL document CHEMBL1201862, “PubChem BioAssay data set” (2004).
